Patent publication US8883077B2, “Disinfecting, nonbleaching N-halamine for use with contact lens” (Auburn University, priority 2010, dated 2014)
Converted amounts (≈) assume the structure as drawn.

What was measured:
[1] = test system: Staphylococcus aureus (ATCC 25923); experiment: Disinfection efficacy in aqueous solution (colony counts after thiosulfate quench); type: cell-based; conditions: 5 mg/L total chlorine (25 mg/L compound)
Method: The antimicrobial efficacy of compound 1 was evaluated against the pathogen Staphylococcus aureus (ATCC 25923) in aqueous solution at 22° C. and pH values of 4.5, 7.0, and 9.5. Solutions containing about 1×10^6 colony forming units (CFU) per mL final cell densities of bacteria were prepared and treated with compound 1 at a concentration of 5 mg/L total chlorine concentration (25 mg/L compound concentration). Aliquots were removed at predetermined contact times and quenched with sterile 0.02 N sodium thiosulfate to terminate disinfection action. Then serial dilutions were made into sterile saline solution, and 25 μL aliquots of each dilution were applied to the dried surface of a Petri dish containing tryptic soy agar. After 48 hours of incubation at 37° C., colony counts for each dilution were made. The results of three replicates were averaged. Control samples containing no disinfectant were handled in the same manner. Inactivation of the pathogen was considered to be at least 99.9999% (6 logs) when no viable colonies were detected in the thiosulfate-quenched aliquots.

[2] = Stability in aqueous solution and in Unisol 4 contact lens soak (iodometric/thiosulfate titration); type: physicochemical
Method: The stabilities of compound 1 in aqueous solution and in a contact lens soak formulation (Unisol 4 manufactured by Alcon Laboratories, Inc.) were determined at 22° C. by using the standard iodometric/thiosulfate titration procedure. In water buffered to pH 7.0 at 22° C., the compound at a starting concentration of 10 mg/L total chlorine lost less than 5% of its oxidative chlorine over a storage period of 50 days. In about 4 mL of Unisol 4 at a starting concentration of about 20 mg/L total chlorine in the presence of an ACUVUE 2 contact lens (manufactured by Johnson & Johnson Vision Care, Inc.) in a lens holder manufactured by Alcon Laboratories, Inc., the loss of oxidative chlorine over 60 days was about 21%. In contrast, in an analogous experiment with compound 2 in the Unisol 4, the loss was about 54% over just 30 days.

[3] = Solubility in water at 22° C.; type: physicochemical
Text: Both of the N-chloramine compounds mentioned above are able to easily be synthesized using methods known to those of skill in the art. Aqueous solutions of the un-halogenated amine precursor for either compound may be simply exposed to a dilute aqueous solution of household bleach (e.g., sodium hypochlorite) or sodium chlorite or by bubbling in chlorine gas to form the N-chloramine. For example, compound 1 has been prepared by Worley, et al., by using chlorine gas to react with an aqueous alkaline solution of the precursor amine (see Tsao, et al., “Novel N-Halamine Disinfectant Compounds”, Biotechnol. Prog. 1991, 7, 60 or Worley, et al., U.S. Pat. No. 5,057,612). It can also be purchased commercially from the HaloSource Corporation in Bothell, Wash. The precursor 2,2,5,5-tetramethyl-4-imidazolidinone is able to be prepared according to the method outlined in Tsao, et al., “Novel N-Halamine Disinfectant Compounds”, Biotechnol. Prog. 1991, 7, 60 or Worley, et al., U.S. Pat. No. 5,057,612. Compound 2 is able to be prepared by reaction of commercial (Aldrich Chemical Company, Milwaukee, Wis.) 2,2,6,6-tetramethyl-4-piperidinol with dilute household bleach. […] Pure compounds 1 and 2 contain 20.1 and 18.5 percent by weight oxidative chlorine, respectively. Their solubilities in water at 22° C. are 1930 and 6815 mg/L, respectively. […]

Structure (SMILES)	contact time required for 99.9999% inactivation ([1]; pH 4.5, 22° C.)	inactivation after 10 minutes contact ([1]; pH 4.5, 22° C., about 1×10^6 CFU/mL)	contact time required for 99.9999% inactivation ([1]; pH 7.0, 22° C.)	inactivation after 10 minutes contact time ([1]; pH 7.0, 22° C., about 1×10^6 CFU/mL)	contact time required for 99.9999% inactivation ([1]; pH 9.5, 22° C.)	inactivation after 10 minutes contact time ([1]; pH 9.5, 22° C., about 1×10^6 CFU/mL)	loss of oxidative chlorine ([2]; about 4 mL Unisol 4 with ACUVUE 2 contact lens, starting about 20 mg/L total chlorine, 60 days)	loss of oxidative chlorine ([2]; water buffered to pH 7.0, 22° C., starting 10 mg/L total chlorine, storage 50 days)	solubility [3]	loss of oxidative chlorine ([2]; Unisol 4 with ACUVUE 2 contact lens, analogous experiment, 30 days)
CC1(C)NC(=O)C(C)(C)N1Cl [compound 1, 1-chloro-2,2,5,5-tetramethyl-4-imidazolidinone]	60 min	96%	588 min	4.4%	454 min	50%	about 21%	less than 5%	1930 µg/mL (≈ 10.9 mM)	–
CC1(C)CC(O)CC(C)(C)N1Cl [compound 2, 1-chloro-2,2,6,6-tetramethyl-4-piperidinol, reference compound]	–	–	–	–	–	–	–	–	6820 µg/mL (≈ 35.5 mM)	about 54%
